Patent US20230303549A1, “SUBSTITUTED HETEROARYLOXYPYRIDINES, THE SALTS THEREOF AND THEIR USE AS HERBICIDAL AGENTS” (Bayer Aktiengesellschaft, priority 2020, published 2023)

Key:
Type in all cases: in vivo
[1] = tested on: Amaranthus retroflexus (AMARE); test: Pre-emergence herbicide efficacy at 320 g/ha, greenhouse pot test; conditions: visual scoring vs untreated control after about 3 weeks
Source text: (§1) Seeds of mono- and dicotyledonous weed plants were placed in plastic pots in sandy loam soil (doubly sown with in each case one species of mono- or dicotyledonous weed plants per pot) and covered with soil. The compounds of the invention, formulated in the form of wettable powders (WP) or as emulsion concentrates (EC), were then applied onto the surface of the covering soil as aqueous suspension or emulsion with addition of 0.5% additive at a water application rate of 600 liters per hectare (converted). After the treatment, the pots were placed in a greenhouse and kept under good growth conditions for the test plants. After about 3 weeks, the effect of the preparations was scored visually in comparison with untreated controls as percentages. For example, 100% activity=the plants have died, 0% activity=like control plants. Tables C1 to C12 below show the effects of selected compounds of the general formula (I) according to Table 1 on various harmful plants and an application rate corresponding to 320 g/ha, which were obtained by the experimental procedure mentioned above.

[2] = tested on: Bassia scoparia (KCHSC); test: as above
Source text: as §1

[3] = tested on: Veronica persica (VERPE); test: as above; conditions: visual scoring vs untreated control after about 3 weeks
Source text: as §1

[4] = tested on: Setaria viridis (SETVI); test: as above; conditions: visual scoring vs untreated control after about 3 weeks
Source text: as §1

[5] = tested on: Abutilon theophrasti (ABUTH); test: as above; conditions: visual scoring vs untreated control after about 3 weeks
Source text: as §1

[6] = tested on: Stellaria media (STEME); test: as above; conditions: visual scoring vs untreated control after about 3 weeks
Source text: as §1

[7] = tested on: Echinochloa crus-galli (ECHCG); test: as above; conditions: visual scoring vs untreated control after about 3 weeks
Source text: as §1

[8] = tested on: Matricaria inodora (MATIN); test: as above; conditions: visual scoring vs untreated control after about 3 weeks
Source text: as §1

[9] = tested on: Poa annua (POAAN); test: as above; conditions: visual scoring vs untreated control after about 3 weeks
Source text: as §1

[10] = tested on: Amaranthus retroflexus (AMARE); test: Post-emergence herbicidal efficacy at 320 g/ha, greenhouse pot test; conditions: visual rating vs untreated control after about 3 weeks
Experimental: (§2) Seeds of mono- and dicotyledonous weed plants were placed in plastic pots in sandy loam soil (doubly sown with in each case one species of mono- or dicotyledonous weed plants per pot), covered with soil and cultivated in a greenhouse under controlled growth conditions. 2 to 3 weeks after sowing, the test plants were treated at the one-leaf stage. The compounds of the invention, formulated in the form of wettable powders (WP) or as emulsion concentrates (EC), were applied onto the green parts of the plants as aqueous suspension or emulsion with addition of 0.5% additive at a water application rate of 600 liters per hectare (converted). After the test plants had been kept in the greenhouse under optimum growth conditions for about 3 weeks, the activity of the preparations was rated visually in comparison to untreated controls. For example, 100% activity=the plants have died, 0% activity=like control plants. Tables […] 11 below show the effects of selected compounds of the general formula (I) according to Table 1 on various harmful plants and an application rate corresponding to 320 g/ha, which were obtained by the experimental procedure mentioned above.

[11] = tested on: Bassia scoparia (KCHSC); test: as above; conditions: visual rating vs untreated control after about 3 weeks
Experimental: as §2

[12] = tested on: Veronica persica (VERPE); test: as above
Experimental: as §2

[13] = tested on: Stellaria media (STEME); test: as above; conditions: visual rating vs untreated control after about 3 weeks
Experimental: as §2

[14] = tested on: Amaranthus retroflexus (AMARE); test: Post-emergence herbicidal efficacy at 80 g/ha, greenhouse pot test; conditions: visual rating vs untreated control after about 3 weeks
Experimental: (§3) Seeds of monocotyledonous and dicotyledonous weeds and crop plants were placed in sandy loam in plastic or organic planting pots, covered with soil and cultivated in a greenhouse under controlled growth conditions. 2 to 3 weeks after sowing, the test plants were treated at the one-leaf stage. The compounds of the invention, formulated in the form of wettable powders (WP) or as emulsion concentrates (EC), were then sprayed onto the green parts of the plants as aqueous suspension or emulsion with addition of 0.5% additive at a water application rate of 600 l/ha (converted). After the test plants had been kept in the greenhouse under optimum growth conditions for about 3 weeks, the activity of the preparations was rated visually in comparison to untreated controls. For example, 100% activity=the plants have died, 0% activity=like control plants. Tables B1 to B6 below show the effects of selected compounds of the general formula (I) according to Table 1 on various harmful plants and an application rate corresponding to 80 g/ha, which were obtained by the experimental procedure mentioned above.

[15] = tested on: Viola tricolor (VIOTR); test: as above; conditions: visual rating vs untreated control after about 3 weeks
Experimental: as §3

[16] = tested on: Amaranthus retroflexus (AMARE); test: Pre-emergence herbicide efficacy at 80 g/ha, greenhouse pot test; conditions: visual scoring vs untreated control after about 3 weeks
Source text: (§4) Seeds of monocotyledonous and dicotyledonous weed plants and crop plants were placed in plastic or organic planting pots and covered with soil. The compounds of the invention, formulated in the form of wettable powders (WP) or as emulsion concentrates (EC), were then applied to the surface of the covering soil as aqueous suspension or emulsion with addition of 0.5% additive at a water application rate of […] (converted). After the treatment, the pots were placed in a greenhouse and kept under good growth conditions for the test plants. After about 3 weeks, the effect of the preparations was scored visually in comparison with untreated controls as percentages. For example, 100% activity=the plants have died, 0% activity=like control plants. Tables D1 to D12 below show the effects of selected compounds of the general formula (I) according to Table 1 on various harmful plants and an application rate corresponding to 80 g/ha, which were obtained by the experimental procedure mentioned above.

[17] = tested on: Viola tricolor (VIOTR); test: as above; conditions: visual scoring vs untreated control after about 3 weeks
Source text: as §4

[18] = tested on: Abutilon theophrasti (ABUTH); test: as above; conditions: visual scoring vs untreated control after about 3 weeks
Source text: as §4

[19] = tested on: Alopecurus myosuroides (ALOMY); test: Post-emergence herbicidal efficacy at 320 g/ha, greenhouse pot test; conditions: visual rating vs untreated control after about 3 weeks
Experimental: as §2

[20] = tested on: Abutilon theophrasti (ABUTH); test: as above; conditions: visual rating vs untreated control after about 3 weeks
Experimental: as §2

[21] = tested on: Alopecurus myosuroides (ALOMY); test: Pre-emergence herbicide efficacy at 320 g/ha, greenhouse pot test; conditions: visual scoring vs untreated control after about 3 weeks
Source text: as §1

[22] = tested on: Poa annua (POAAN); test: Post-emergence herbicidal efficacy at 320 g/ha, greenhouse pot test; conditions: visual rating vs untreated control after about 3 weeks
Experimental: as §2

[23] = dosage 1280 g/ha in Table C6, visual scoring after about 3 weeks
[24] = 320 g/ha, visual rating vs untreated control after about 3 weeks
[25] = 320 g/ha, visual scoring vs untreated control after about 3 weeks

Cc1cc(C)c(-n2cc(I)cn2)c(Oc2ncc(Cl)cn2)n1 [Example I-295]
Pre-emergence efficacy against Amaranthus retroflexus (AMARE) [1]: 100%
Pre-emergence efficacy against Bassia scoparia (KCHSC) [2, 23]: 100%
Pre-emergence efficacy against Veronica persica (VERPE) [3]: 90%
Pre-emergence efficacy against Setaria viridis (SETVI) [4]: 100%
Pre-emergence efficacy against Abutilon theophrasti (ABUTH) [5]: 100%
Pre-emergence efficacy against Stellaria media (STEME) [6]: 100%
Pre-emergence efficacy against Echinochloa crus-galli (ECHCG) [7]: 90%
Pre-emergence efficacy against Matricaria inodora (MATIN) [8]: 100%
Pre-emergence efficacy against Poa annua (POAAN) [9]: 90%
Post-emergence efficacy against Amaranthus retroflexus (AMARE) [10]: 90%
Post-emergence efficacy against Bassia scoparia (KCHSC) [11]: 90%
Post-emergence efficacy against Veronica persica (VERPE) [12, 24]: 100%
Post-emergence action against Stellaria media (STEME) [13]: 90%

Cc1cc(C)c(-c2cc(C(F)F)no2)c(Oc2ncc(Cl)cc2F)n1 [Example I-14]
Post-emergence efficacy against Amaranthus retroflexus (AMARE) [14]: 100%
Post-emergence efficacy against Viola tricolor (VIOTR) [15]: 100%
Pre-emergence efficacy against Amaranthus retroflexus (AMARE) [1]: 100%
Pre-emergence efficacy against Bassia scoparia (KCHSC) [2, 23]: 100%
Pre-emergence efficacy against Setaria viridis (SETVI) [4]: 100%
Pre-emergence efficacy against Abutilon theophrasti (ABUTH) [5]: 100%
Pre-emergence efficacy against Stellaria media (STEME) [6]: 100%
Pre-emergence efficacy against Matricaria inodora (MATIN) [8]: 100%
Pre-emergence efficacy against Poa annua (POAAN) [9]: 100%
Pre-emergence efficacy against Amaranthus retroflexus (AMARE) [16]: 100%
Pre-emergence efficacy against Viola tricolor (VIOTR) [17]: 100%
Pre-emergence efficacy against Abutilon theophrasti (ABUTH) [18]: 80%
Post-emergence efficacy against Amaranthus retroflexus (AMARE) [10]: 90%
Post-emergence efficacy against Bassia scoparia (KCHSC) [11]: 100%
Post-emergence efficacy against Veronica persica (VERPE) ([12]; dosage printed 80 g/ha in Table A9, visual rating after about 3 weeks): 100%
Post-emergence efficacy against Alopecurus myosuroides (ALOMY) [19]: 100%
Post-emergence efficacy against Abutilon theophrasti (ABUTH) [20]: 90%
Post-emergence action against Stellaria media (STEME) [13]: 100%

Cc1cc(C)c(-c2cc(C(F)(F)F)on2)c(Oc2ncc(F)cn2)n1 [Example I-6]
Pre-emergence efficacy against Amaranthus retroflexus (AMARE) [1]: 100%
Pre-emergence efficacy against Bassia scoparia (KCHSC) [2, 25]: 90%
Pre-emergence efficacy against Veronica persica (VERPE) [3]: 100%
Pre-emergence efficacy against Setaria viridis (SETVI) [4]: 100%
Pre-emergence efficacy against Alopecurus myosuroides (ALOMY) [21]: 90%
Pre-emergence efficacy against Abutilon theophrasti (ABUTH) [5]: 100%
Pre-emergence efficacy against Stellaria media (STEME) [6]: 100%
Pre-emergence efficacy against Echinochloa crus-galli (ECHCG) [7]: 100%
Pre-emergence efficacy against Matricaria inodora (MATIN) [8]: 100%
Pre-emergence efficacy against Poa annua (POAAN) [9]: 100%
Post-emergence efficacy against Bassia scoparia (KCHSC) [11]: 90%
Post-emergence efficacy against Abutilon theophrasti (ABUTH) [20]: 90%
Post-emergence efficacy against Poa annua (POAAN) [22]: 90%

Cc1cc(C)c(-c2cc(C3CC3)no2)c(Oc2ncc(F)cn2)n1 [Example I-178]
Pre-emergence efficacy against Amaranthus retroflexus (AMARE) [1]: 100%
Pre-emergence efficacy against Bassia scoparia (KCHSC) [2, 23]: 90%
Pre-emergence efficacy against Veronica persica (VERPE) [3]: 100%
Pre-emergence efficacy against Setaria viridis (SETVI) [4]: 100%
Pre-emergence efficacy against Abutilon theophrasti (ABUTH) [5]: 100%
Pre-emergence efficacy against Stellaria media (STEME) [6]: 100%
Pre-emergence efficacy against Echinochloa crus-galli (ECHCG) [7]: 100%
Pre-emergence efficacy against Matricaria inodora (MATIN) [8]: 100%
Pre-emergence efficacy against Poa annua (POAAN) [9]: 100%
Post-emergence efficacy against Amaranthus retroflexus (AMARE) [10]: 100%
Post-emergence efficacy against Bassia scoparia (KCHSC) [11]: 90%
Post-emergence efficacy against Veronica persica (VERPE) [12, 24]: 100%
Post-emergence efficacy against Abutilon theophrasti (ABUTH) [20]: 90%
Post-emergence action against Stellaria media (STEME) [13]: 100%
Post-emergence efficacy against Poa annua (POAAN) [22]: 100%

Cc1cc(C)c(-c2cc(C(F)F)no2)c(Oc2cnc(Cl)cn2)n1 [Example I-11]
Pre-emergence efficacy against Amaranthus retroflexus (AMARE) [1]: 100%
Pre-emergence efficacy against Bassia scoparia (KCHSC) [2, 25]: 90%
Pre-emergence efficacy against Veronica persica (VERPE) [3]: 100%
Pre-emergence efficacy against Setaria viridis (SETVI) [4]: 90%
Pre-emergence efficacy against Alopecurus myosuroides (ALOMY) [21]: 100%
Pre-emergence efficacy against Abutilon theophrasti (ABUTH) [5]: 90%
Pre-emergence efficacy against Stellaria media (STEME) [6]: 100%
Pre-emergence efficacy against Matricaria inodora (MATIN) [8]: 100%
Pre-emergence efficacy against Poa annua (POAAN) [9]: 100%
Post-emergence efficacy against Amaranthus retroflexus (AMARE) [10]: 100%
Post-emergence efficacy against Bassia scoparia (KCHSC) [11]: 90%
Post-emergence efficacy against Veronica persica (VERPE) [12, 24]: 100%
Post-emergence efficacy against Alopecurus myosuroides (ALOMY) [19]: 90%
Post-emergence action against Stellaria media (STEME) [13]: 100%

Cc1cc(C)c(-c2cc(C3CC3)no2)c(Oc2ncc(Cl)cn2)n1 [Example I-179]
Pre-emergence efficacy against Amaranthus retroflexus (AMARE) [1]: 100%
Pre-emergence efficacy against Bassia scoparia (KCHSC) [2, 23]: 90%
Pre-emergence efficacy against Veronica persica (VERPE) [3]: 90%
Pre-emergence efficacy against Setaria viridis (SETVI) [4]: 100%
Pre-emergence efficacy against Abutilon theophrasti (ABUTH) [5]: 100%
Pre-emergence efficacy against Stellaria media (STEME) [6]: 100%
Pre-emergence efficacy against Echinochloa crus-galli (ECHCG) [7]: 100%
Pre-emergence efficacy against Matricaria inodora (MATIN) [8]: 100%
Pre-emergence efficacy against Poa annua (POAAN) [9]: 100%
Post-emergence efficacy against Amaranthus retroflexus (AMARE) [10]: 90%
Post-emergence efficacy against Bassia scoparia (KCHSC) [11]: 90%
Post-emergence efficacy against Veronica persica (VERPE) [12, 24]: 100%
Post-emergence efficacy against Abutilon theophrasti (ABUTH) [20]: 90%
Post-emergence action against Stellaria media (STEME) [13]: 100%
Post-emergence efficacy against Poa annua (POAAN) [22]: 90%
